Test results as given in PubChem BioAssay (NCI).
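Values below derive from 48-hour exposures of cells grown in 96-well plates, with endpoints linearly interpolated between the two concentrations bracketing the appropriate inhibition level. Here, GI50 denotes the concentration required for 50% inhibition of growth. Definition used: TGI = concentration required for complete inhibition of growth.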

What was measured:
Assay in all cases: DTP human tumour cell line panel, 48 h
COLO 205 colon = tested on: COLO 205 colon
HCT-116 colon = tested on: HCT-116 colon
HS 578T breast = tested on: HS 578T breast
HT29 colon = tested on: HT29 colon
MDA-MB-231 breast = tested on: MDA-MB-231 breast
MDA-MB-435 = tested on: MDA-MB-435
NCI-H226 lung = tested on: NCI-H226 lung
OVCAR-5 ovarian = tested on: OVCAR-5 ovarian
SF-539 CNS = tested on: SF-539 CNS
T-47D breast = tested on: T-47D breast

Row | Compound | GI50 (COLO 205 colon) | TGI (COLO 205 colon) | GI50 (HCT-116 colon) | TGI (HCT-116 colon) | GI50 (HS 578T breast) | TGI (HS 578T breast) | GI50 (HT29 colon) | TGI (HT29 colon) | GI50 (MDA-MB-231 breast) | TGI (MDA-MB-231 breast) | GI50 (MDA-MB-435) | TGI (MDA-MB-435) | GI50 (NCI-H226 lung) | TGI (NCI-H226 lung) | GI50 (OVCAR-5 ovarian) | TGI (OVCAR-5 ovarian) | GI50 (SF-539 CNS) | TGI (SF-539 CNS) | GI50 (T-47D breast) | TGI (T-47D breast)
1 | Cc1ccccc1S(=O)(=O)N1[C@H](c2ccc(Cl)cc2)C(C(=O)N[C@@H](Cc2ccccc2)C(N)=O)=C[C@@H]1C(C)(C)C | 6.8 µM | 14.3 µM | 2.9 µM | 15.1 µM | 8.64 µM | 26.4 µM | 3.49 µM | 10 µM | 6.94 µM | 14.3 µM | 6.83 µM | 13.7 µM | 7.05 µM | 16.1 µM | 5.62 µM | 11.9 µM | 6.61 µM | 13.4 µM | 5 µM | 20.2 µM
2 | CCN(CC)CCOc1ccc(Nc2ncc3cc(-c4c(Cl)cccc4Cl)c(=O)n(CCOC)c3n2)cc1 | 0.148 µM | 2.43 µM | 0.159 µM | 1.16 µM | 0.0273 µM | 1.57 µM | 0.105 µM | 2.27 µM | 0.0432 µM | 0.813 µM | 0.469 µM | 2.5 µM | 0.1 µM | 7.89 µM | 0.137 µM | 7.09 µM | 0.0557 µM | 0.821 µM | 0.133 µM | 16.5 µM
3 | CNC(=O)c1c(NC(=O)c2cccc(C(F)(F)F)c2)sc2c1CCC(=O)C2 | 0.382 µM | 1.48 µM | 0.199 µM | 1.59 µM | 0.425 µM | 45.9 µM | 0.347 µM |  | 0.332 µM | 1.88 µM | 0.544 µM | 3.1 µM | 1.61 µM | 5.71 µM | 0.465 µM | 2.73 µM | 0.339 µM | 1.67 µM | 0.305 µM | 2.29 µM
4 | C=C1C(=O)O[C@H]2[C@H]1CC/C(CNS(=O)(=O)c1ccc3ccccc3c1)=C\CC[C@@]1(C)O[C@@H]21 | 1.16 µM | 2.69 µM | 0.879 µM | 2.12 µM | 4.69 µM | 29.1 µM | 1.94 µM | 3.91 µM | 2.15 µM | 5.36 µM | 2.35 µM | 7.37 µM | 13.9 µM | 34.8 µM | 1.99 µM | 4.82 µM | 1.73 µM | 3.56 µM | 1.92 µM | 4.64 µM
5 | COC(=O)c1ccccc1C#CCCCOS(C)(=O)=O |  | > 10 µM |  | > 10 µM |  | > 10 µM |  | > 10 µM |  | > 10 µM |  | > 10 µM |  | > 10 µM |  | > 10 µM |  | > 10 µM |  | > 10 µM
6 | O=S1(=O)N(Cc2ccccc2)[C@@H](Cc2ccccc2)C2O[C@H]2[C@H](Cc2ccccc2)N1Cc1ccccc1 (some centres undefined) | > 7.5 µM | > 7.5 µM | 0.844 µM | > 7.5 µM | > 7.5 µM | > 7.5 µM | > 7.5 µM | > 7.5 µM | > 7.5 µM | > 7.5 µM | > 7.5 µM | > 7.5 µM | > 7.5 µM | > 7.5 µM | > 7.5 µM | > 7.5 µM | > 7.5 µM | > 7.5 µM | 6.81 µM | > 7.5 µM
7 | N#Cc1c2ccccc2c2n1-c1ccccc1OC(c1ccccc1)C2=O (centres undefined) | 4.67 µM | 16.4 µM | 2.84 µM | 12.4 µM | 3.53 µM | 37 µM | 4.1 µM | 14 µM | 2.78 µM | 8.99 µM | 2.88 µM | 9.19 µM | 3.09 µM | 11.7 µM | 5.37 µM | 34 µM | 4.29 µM | 16.8 µM | 3.28 µM | 15.6 µM
8 | Cc1nc2cncc(C#Cc3cncc(C(=O)Nc4ccc(CN5CCN(C)CC5)c(C(F)(F)F)c4)c3)c2nc1C | 0.196 µM | 5.96 µM | 0.248 µM | 2.22 µM | 0.193 µM | 1.61 µM | 0.205 µM | 7.56 µM | 0.229 µM | 1.03 µM | 0.21 µM | 3.03 µM | 0.0572 µM | 4.19 µM | 0.608 µM | 17.5 µM | 0.207 µM | 1.02 µM | 1.24 µM | 22.7 µM
